From US6906074B2, “2-phenylpiperazine derivatives” (Nippon Zoki Pharmaceutical Co., Ltd., priority 2002, dated 2005)
pIC50: −log10 of the molar value. Marks after values point to notes of the source that are not given here. Values belong to the compound of their own block, whether it stands above or below them.

What was measured:
human NK1 receptors = human NK1 receptors (Homo sapiens, UniProt P25103); assay: Binding assay for human NK1 receptors ((3H)-Sar9-SP, human NK1-CHO cells)
[1] = test system: Neurokinin A-induced increase of vascular permeability (tachykinin receptor); assay: Neurokinin A-induced increase of vascular permeability in guinea pig skin (Evans Blue dye); format: in vivo, guinea pigs; settings: Neurokinin A 100 pmole/site, 10 mg/kg oral
Experimental: (§1) The compounds of the present invention and synthesized LY-303870 were suspended or dissolved in 0.5% sodium carboxymethylcellulose solution, and orally administered at the dose of 5 mL/kg. to male Hartley SPF guinea pigs of 6 week age.
(§2) Guinea pigs, sheared of fur, were anesthetized with ether and 1% Evan Blue dye in physiological saline (1 mL/500 g b.w.) was injected into their fore-leg intravenously. Immediately after the dye injection, SP (1 pmol/site), NKA (100 pmol/site) and NKB (100 pmol/site) in physiological saline were injected dorsal intradermally (0.05 mL/site) whereby the reaction of increase of vascular permeability was induced. Half an hour after tachykinin challenge, the animals were sacrificed by decapitation and bloodletting, and the dorsal skin was removed and the amount of transuded blue dye thereof was measured. Namely, the blue dyed sites were punched out using a punch for leather (16 mm diameter), of which 2 pieces were allowed to stand at 37° C. overnight in a covered tube with addition of 1 mL of 2 mol/L KOH solution. After stirring well, 6 mL of a mixture of 2 mol/L H3PO4 solution and acetone (1:3) were added thereto and Evans Blue dye was extracted by vigorous shaking for 10 minutes. After the precipitate was filtered off, the absorbance of the filtrate was measured at 620 nm with a spectrophotometer and the amount of dye was determined from the calibration curve. Nonspecific reaction was estimated from the amount of transuded dye by the injection of physiological saline. The significant difference in the average values between the control group and the test compound-treated group was calculated by means of a Student's t-test or Dunnett's test (Statistical Library I, two-sided test, Yukms).
(§3) The tested compounds were orally administered at a dose of 10 mg/kg at various points from 30 min to 8 hrs before the induction of tachykinin-induced increase of vascular permeability. An example of the results is shown in Table 2 (* and ** stand for the significant difference of p<0.05 and p<0.01 respectively compared to control).

[2] = test system: Substance P-induced increase of vascular permeability (tachykinin receptor); assay: Substance P-induced increase of vascular permeability in guinea pig skin (Evans Blue dye); format: in vivo, guinea pigs; settings: Substance P 1 pmole/site, 10 mg/kg oral
Experimental: as §1, §2, §3

[3] = test system: Neurokinin B-induced increase of vascular permeability (tachykinin receptor); assay: Neurokinin B-induced increase of vascular permeability in guinea pig skin (Evans Blue dye); format: in vivo, guinea pigs; settings: Neurokinin B 100 pmole/site, 10 mg/kg oral
Experimental: as §1, §2, §3

[4] = 0.5 hr from administration to induction
[5] = 1 hr from administration to induction
[6] = 2 hr from administration to induction
[7] = 4 hr from administration to induction
[8] = 8 hr from administration to induction
[9] = 3 hr from administration to induction

Sequence of human NK1 receptors (P25103 whole entry): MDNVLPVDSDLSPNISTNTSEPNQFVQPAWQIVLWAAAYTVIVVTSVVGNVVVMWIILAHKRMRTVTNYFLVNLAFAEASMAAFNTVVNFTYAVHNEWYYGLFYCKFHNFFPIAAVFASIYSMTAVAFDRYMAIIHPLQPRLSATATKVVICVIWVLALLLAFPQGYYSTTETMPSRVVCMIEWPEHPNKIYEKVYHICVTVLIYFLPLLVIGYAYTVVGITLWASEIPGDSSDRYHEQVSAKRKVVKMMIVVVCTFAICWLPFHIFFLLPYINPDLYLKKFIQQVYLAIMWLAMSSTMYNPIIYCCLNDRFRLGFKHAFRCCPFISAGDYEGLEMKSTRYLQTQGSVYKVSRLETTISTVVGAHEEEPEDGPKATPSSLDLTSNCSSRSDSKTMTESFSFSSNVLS

melting point: 213 to 216 °C
SMILES: CN(C)Cc1[nH]nnc1CN1CC(=O)N[C@H](COCc2cc(C(F)(F)F)cc(C(F)(F)F)c2)[C@@H]1c1ccc(F)cc1.Cl.Cl

melting point: 142 to 145 °C
SMILES: CN(C)Cc1[nH]nnc1CN1CC(=O)N(C)[C@H](COCc2cc(C(F)(F)F)cc(C(F)(F)F)c2)[C@@H]1c1ccc(F)cc1.Cl.Cl

melting point: 219 to 221 °C
SMILES: Cl.O=C1CN[C@@H](c2ccccc2)[C@@H](COCc2cc(C(F)(F)F)cc(C(F)(F)F)c2)N1

pIC50 (human NK1 receptors): 8.82
SMILES: O=C1CN(Cc2n[nH]c(=O)[nH]2)[C@@H](c2ccccc2)[C@@H](COCc2cc(C(F)(F)F)cc(C(F)(F)F)c2)N1 [Compound 12, (5S,6S)-6-(3,5-Bis(trifluoromethyl)benzyloxymethyl)-4-(5-oxo-4,5-dihydro-1H-(1,2,4)triazol-3-ylmethyl)-5-phenylpiperazin-2-one]

pIC50 (human NK1 receptors): 10.40
SMILES: CN1C(=O)CN(Cc2n[nH]c(=O)[nH]2)[C@@H](c2ccccc2)[C@H]1COCc1cc(C(F)(F)F)cc(C(F)(F)F)c1 [Compound 26, (5S,6S)-6-(3,5-Bis(trifluoromethyl)benzyloxymethyl)-1-methyl-4-(5-oxo-4,5-dihydro-1H-(1,2,4)triazol-3-ylmethyl)-5-phenylpiperazin-2-one]
amount of transuded blue dye, Mean ± S.E [1, 4]: 3.6 ± 0.7** | amount of transuded blue dye, Mean ± S.E [1, 5]: 1.0 ± 0.5** | amount of transuded blue dye, Mean ± S.E [1, 6]: 2.6 ± 1.4** | amount of transuded blue dye, Mean ± S.E [1, 7]: 3.6 ± 2.6** | amount of transuded blue dye, Mean ± S.E [1, 8]: 10.1 ± 3.3 | amount of transuded blue dye, Mean ± S.E [2, 4]: 6.2 ± 1.5** | amount of transuded blue dye, Mean ± S.E [2, 5]: 1.4 ± 0.6** | amount of transuded blue dye, Mean ± S.E [2, 6]: 4.3 ± 0.9** | amount of transuded blue dye, Mean ± S.E [2, 7]: 4.9 ± 1.3** | amount of transuded blue dye, Mean ± S.E [2, 8]: 11.9 ± 2.4** | amount of transuded blue dye, Mean ± S.E [3, 4]: 1.4 ± 0.9** | amount of transuded blue dye, Mean ± S.E [3, 5]: 0.1 ± 0.1** | amount of transuded blue dye, Mean ± S.E [3, 6]: 0.5 ± 0.4** | amount of transuded blue dye, Mean ± S.E [3, 7]: 1.0 ± 0.4** | amount of transuded blue dye, Mean ± S.E [3, 8]: 9.4 ± 1.6**

melting point: 138 to 140 °C
SMILES: O=C1CN(Cc2n[nH]c(=O)[nH]2)[C@H](c2ccccc2)[C@H](COCc2cc(C(F)(F)F)cc(C(F)(F)F)c2)N1 [Compound 27, (5R,6R)-6-(3,5-Bis(trifluoromethyl)benzyloxymethyl)-4-(5-oxo-4,5-dihydro-1H-(1,2,4)triazol-3-ylmethyl)-5-phenylpiperazin-2-one]

melting point: 129 to 132 °C | pIC50 (human NK1 receptors): 9.62
SMILES: O=C1CN(Cc2n[nH]c(=O)[nH]2)[C@@H](c2ccc(F)cc2)[C@@H](COCc2cc(C(F)(F)F)cc(C(F)(F)F)c2)N1 [Compound 32, (5S,6S)-6-(3,5-Bis(trifluoromethyl)benzyloxymethyl)-5-(4-fluorophenyl)-4-(5-oxo-4,5-dihydro-1H-(1,2,4)triazol-3-ylmethyl)piperazin-2-one]

melting point: 212 to 213 °C
SMILES: CN1C(=O)CN(Cc2n[nH]c(=O)[nH]2)[C@@H](c2ccc(F)cc2)[C@H]1COCc1cc(C(F)(F)F)cc(C(F)(F)F)c1 [Compound 38, (5S,6S)-6-(3,5-Bis(trifluoromethyl)benzyloxymethyl)-5-(4-fluorophenyl)-1-methyl-4-(5-oxo-4,5-dihydro-1H-(1,2,4)triazol-3-ylmethyl)piperazin-2-one]

melting point: 138 to 140 °C
SMILES: O=C1CN(Cc2n[nH]c(=O)[nH]2)[C@@H](c2ccc(F)cc2)[C@@H](COCc2cc(C(F)(F)F)cc(C(F)(F)F)c2)N1 [Compound 40, (5S,6S)-6-(3,5-Bis(trifluoromethyl)benzyloxymethyl)-5-(4-fluorophenyl)-4-(5-oxo-4,5-dihydro-1H-(1,2,4)triazol-3-ylmethyl)piperazin-2-one]

SMILES: COc1ccccc1CN(C[C@@H](Cc1c[nH]c2ccccc12)NC(=O)CN1CCC(N2CCCCC2)CC1)C(C)=O [LY-303870, reference compound]
amount of transuded blue dye, Mean ± S.E [1, 4]: 5.3 ± 2.3** | amount of transuded blue dye, Mean ± S.E [1, 5]: 5.8 ± 1.9** | amount of transuded blue dye, Mean ± S.E [1, 6]: 14.5 ± 5.0 | amount of transuded blue dye, Mean ± S.E [1, 9]: 11.1 ± 4.3 | amount of transuded blue dye, Mean ± S.E [1, 7]: 10.8 ± 3.4 | amount of transuded blue dye, Mean ± S.E [2, 4]: 6.3 ± 2.1** | amount of transuded blue dye, Mean ± S.E [2, 5]: 7.8 ± 2.5** | amount of transuded blue dye, Mean ± S.E [2, 6]: 17.0 ± 3.4 | amount of transuded blue dye, Mean ± S.E [2, 9]: 12.2 ± 2.2** | amount of transuded blue dye, Mean ± S.E [2, 7]: 14.4 ± 0.9** | amount of transuded blue dye, Mean ± S.E [3, 4]: 2.0 ± 1.2** | amount of transuded blue dye, Mean ± S.E [3, 5]: 5.0 ± 2.2** | amount of transuded blue dye, Mean ± S.E [3, 6]: 12.0 ± 3.2* | amount of transuded blue dye, Mean ± S.E [3, 9]: 7.7 ± 1.8** | amount of transuded blue dye, Mean ± S.E [3, 7]: 13.6 ± 1.1**
